One assay relates to K562. Description: Compound was evaluated for cytotoxic activity against K562 human chronic myelogenous leukemia cell line using MTT assay. The format is functional, cell-based. Background: Tetrazolium assays rely on reduction of a dye to a coloured formazan, in cell work by metabolically active cells.
The next assay has as its target Tubulin alpha chain (Sus scrofa, UniProt P02550). The experiment in a line: Tested for inhibition of polymerization of tubulin.
The test system of another assay is HeLa. The experiment in a line: Compound was evaluated for cytotoxic activity against HeLa S3 cell line. It is filed as functional, cell-based. The settings on record: Homo sapiens.

The term IC50 denotes the point on the concentration scale where inhibition reaches its midpoint. Read a high IC50 as a need for much substance.

Sequence of Tubulin alpha chain (P02550 whole entry, looked up): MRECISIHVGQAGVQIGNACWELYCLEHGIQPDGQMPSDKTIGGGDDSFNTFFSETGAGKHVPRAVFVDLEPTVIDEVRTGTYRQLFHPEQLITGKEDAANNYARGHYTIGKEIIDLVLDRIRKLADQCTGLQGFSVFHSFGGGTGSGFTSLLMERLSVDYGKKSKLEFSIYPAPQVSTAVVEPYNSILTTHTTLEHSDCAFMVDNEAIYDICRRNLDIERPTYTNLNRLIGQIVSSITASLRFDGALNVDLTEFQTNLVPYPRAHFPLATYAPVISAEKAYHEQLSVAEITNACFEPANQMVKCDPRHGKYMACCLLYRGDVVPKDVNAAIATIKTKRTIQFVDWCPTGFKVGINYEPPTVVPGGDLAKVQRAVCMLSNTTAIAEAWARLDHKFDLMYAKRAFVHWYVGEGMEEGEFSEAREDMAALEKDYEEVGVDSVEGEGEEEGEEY

As for `COc1ccc(OC)c(C(=O)/C(C)=C/c2ccc(N(C)C)cc2)c1`, the IC50 in the assay with K562 was 11 nM; at Tubulin alpha chain, 12 nM.

As for `COc1cc(C(=O)/C=C/c2ccc3c(c2)OCCO3)cc(OC)c1OC`, inhibition in the assay on K562 was half-maximal at 80 nM (IC50). That is a double-digit nanomolar value.

The compound `COc1ccc(/C=C/C(=O)c2cc(OC)c(OC)c(OC)c2)cc1O` displayed an IC50 in the assay on K562 of 4.3 nM.

Turning to `COc1cc(C(=O)/C=C/c2ccc3c(c2)OCO3)cc(OC)c1OC`, inhibition in the assay on K562 was half-maximal at 300 nM (IC50). This IC50 is about 70-fold higher than that of the compound before.

Consider `COc1cc(C(=O)/C(C)=C/c2ccc3c(c2)OCO3)cc(OC)c1OC`, for which the IC50 with K562 was 14 nM.

As for `COc1ccc(OC)c(C(=O)/C=C/c2ccc(N(C)C)cc2)c1`, the IC50 with K562 was found to be 36 nM. This IC50 lies about 2.6-fold higher than the previous one.

With `COc1ccc(/C=C(\C)C(=O)c2cc(OC)c(OC)c(OC)c2)cc1O`, the IC50 in the assay with HeLa is 0.62 nM; with K562 it was 0.21 nM.

`COc1cc(C(=O)/C(C)=C/c2ccc3c(c2)OCCO3)cc(OC)c1OC` yielded a 50% inhibitory concentration (IC50) with K562 of 12 nM. That is a double-digit nanomolar value.

Values taken from ChEMBL document CHEMBL1130804, “Potent antimitotic and cell growth inhibitory properties of substituted chalcones” (Bioorg Med Chem Lett, 1998).
